Like-named read-outs stand apart in the source and are kept apart here.
Key:
BRM = target: T1, BRM (Homo sapiens, UniProt P51531); experiment: ATPase catalytic activity of BRM, ADP-Glo in vitro biochemical assay; details: for IC50: 30 nM BRM, 400 μM ATP; for Ratio* (BRG1 IC50 (μM) divided by BRM IC50 (μM)): selectivity ratio BRG1 IC50 / BRM IC50
T1 construct: made in house; host or cells: High Five insect cells
Summary of the method: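 ADP-Glo luminescence, after depletion of leftover ATP and conversion of ADP, reported the activity. The 1 h room-temperature reaction held 400 μM ATP, 20 nM salmon sperm DNA and 30 nM BRM in 20 mM Tris pH 8, 20 mM MgCl2, 50 mM NaCl, 0.1% Tween-20, 1 mM DTT.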

BRG-1 = target: T2, BRG-1 (Homo sapiens, UniProt P51532); experiment: ATPase catalytic activity of BRG-1, ADP-Glo in vitro biochemical assay; details: 30 nM BRG-1, 400 μM ATP, read-out: BRG1 IC50
T2 construct: made in house; host or cells: High Five insect cells
Summary of the method: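 Luminescence read-out: ADP formed by BRG-1 ATPase is converted to ATP and detected by luciferase. Residual ATP is first removed with ADP-Glo Reagent for 40 min at RT; detection reagent is then incubated 60 min at RT before reading.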

[1] = ATPase catalytic activity, ADP-Glo

T1 sequence (P51531 whole entry): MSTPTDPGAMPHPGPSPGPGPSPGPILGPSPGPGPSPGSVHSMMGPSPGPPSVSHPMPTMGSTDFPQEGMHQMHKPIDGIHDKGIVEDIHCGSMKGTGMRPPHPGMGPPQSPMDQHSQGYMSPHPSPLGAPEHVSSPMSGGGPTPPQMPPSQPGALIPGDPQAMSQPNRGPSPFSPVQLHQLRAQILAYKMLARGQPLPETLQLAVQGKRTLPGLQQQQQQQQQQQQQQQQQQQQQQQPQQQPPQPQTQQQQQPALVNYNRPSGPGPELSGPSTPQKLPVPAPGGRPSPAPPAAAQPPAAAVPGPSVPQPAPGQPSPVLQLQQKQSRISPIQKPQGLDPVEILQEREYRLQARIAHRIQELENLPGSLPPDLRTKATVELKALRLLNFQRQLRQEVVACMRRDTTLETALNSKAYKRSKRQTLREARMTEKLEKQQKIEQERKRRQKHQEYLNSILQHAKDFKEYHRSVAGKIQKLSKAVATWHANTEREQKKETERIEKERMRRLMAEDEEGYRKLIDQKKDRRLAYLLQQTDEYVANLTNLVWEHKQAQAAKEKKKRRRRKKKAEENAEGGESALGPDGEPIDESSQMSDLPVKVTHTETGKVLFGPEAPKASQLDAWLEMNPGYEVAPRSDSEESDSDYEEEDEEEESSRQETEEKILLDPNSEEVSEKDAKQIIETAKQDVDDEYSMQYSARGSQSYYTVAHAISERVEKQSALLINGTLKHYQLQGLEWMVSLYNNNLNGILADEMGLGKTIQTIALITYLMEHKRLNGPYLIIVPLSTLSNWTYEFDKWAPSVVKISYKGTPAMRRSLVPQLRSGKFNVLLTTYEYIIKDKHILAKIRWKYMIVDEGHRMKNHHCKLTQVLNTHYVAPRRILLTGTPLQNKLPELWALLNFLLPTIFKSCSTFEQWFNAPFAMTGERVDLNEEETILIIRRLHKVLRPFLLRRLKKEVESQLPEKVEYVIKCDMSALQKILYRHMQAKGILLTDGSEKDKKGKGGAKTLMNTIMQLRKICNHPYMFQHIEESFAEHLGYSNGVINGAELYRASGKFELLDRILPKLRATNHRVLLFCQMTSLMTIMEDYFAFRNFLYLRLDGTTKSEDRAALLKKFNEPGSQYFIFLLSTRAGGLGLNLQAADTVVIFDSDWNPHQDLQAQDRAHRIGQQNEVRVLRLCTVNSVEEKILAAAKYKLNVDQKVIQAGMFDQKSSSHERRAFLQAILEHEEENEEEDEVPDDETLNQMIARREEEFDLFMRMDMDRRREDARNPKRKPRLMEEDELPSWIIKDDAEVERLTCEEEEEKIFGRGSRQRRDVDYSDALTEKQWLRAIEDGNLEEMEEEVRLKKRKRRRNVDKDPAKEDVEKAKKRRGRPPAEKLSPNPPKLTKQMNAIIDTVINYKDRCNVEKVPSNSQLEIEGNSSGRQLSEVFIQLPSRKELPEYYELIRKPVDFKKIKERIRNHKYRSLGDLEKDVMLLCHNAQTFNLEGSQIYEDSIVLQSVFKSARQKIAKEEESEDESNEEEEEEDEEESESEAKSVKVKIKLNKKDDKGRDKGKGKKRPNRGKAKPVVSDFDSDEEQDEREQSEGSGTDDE
T2 sequence (P51532 whole entry): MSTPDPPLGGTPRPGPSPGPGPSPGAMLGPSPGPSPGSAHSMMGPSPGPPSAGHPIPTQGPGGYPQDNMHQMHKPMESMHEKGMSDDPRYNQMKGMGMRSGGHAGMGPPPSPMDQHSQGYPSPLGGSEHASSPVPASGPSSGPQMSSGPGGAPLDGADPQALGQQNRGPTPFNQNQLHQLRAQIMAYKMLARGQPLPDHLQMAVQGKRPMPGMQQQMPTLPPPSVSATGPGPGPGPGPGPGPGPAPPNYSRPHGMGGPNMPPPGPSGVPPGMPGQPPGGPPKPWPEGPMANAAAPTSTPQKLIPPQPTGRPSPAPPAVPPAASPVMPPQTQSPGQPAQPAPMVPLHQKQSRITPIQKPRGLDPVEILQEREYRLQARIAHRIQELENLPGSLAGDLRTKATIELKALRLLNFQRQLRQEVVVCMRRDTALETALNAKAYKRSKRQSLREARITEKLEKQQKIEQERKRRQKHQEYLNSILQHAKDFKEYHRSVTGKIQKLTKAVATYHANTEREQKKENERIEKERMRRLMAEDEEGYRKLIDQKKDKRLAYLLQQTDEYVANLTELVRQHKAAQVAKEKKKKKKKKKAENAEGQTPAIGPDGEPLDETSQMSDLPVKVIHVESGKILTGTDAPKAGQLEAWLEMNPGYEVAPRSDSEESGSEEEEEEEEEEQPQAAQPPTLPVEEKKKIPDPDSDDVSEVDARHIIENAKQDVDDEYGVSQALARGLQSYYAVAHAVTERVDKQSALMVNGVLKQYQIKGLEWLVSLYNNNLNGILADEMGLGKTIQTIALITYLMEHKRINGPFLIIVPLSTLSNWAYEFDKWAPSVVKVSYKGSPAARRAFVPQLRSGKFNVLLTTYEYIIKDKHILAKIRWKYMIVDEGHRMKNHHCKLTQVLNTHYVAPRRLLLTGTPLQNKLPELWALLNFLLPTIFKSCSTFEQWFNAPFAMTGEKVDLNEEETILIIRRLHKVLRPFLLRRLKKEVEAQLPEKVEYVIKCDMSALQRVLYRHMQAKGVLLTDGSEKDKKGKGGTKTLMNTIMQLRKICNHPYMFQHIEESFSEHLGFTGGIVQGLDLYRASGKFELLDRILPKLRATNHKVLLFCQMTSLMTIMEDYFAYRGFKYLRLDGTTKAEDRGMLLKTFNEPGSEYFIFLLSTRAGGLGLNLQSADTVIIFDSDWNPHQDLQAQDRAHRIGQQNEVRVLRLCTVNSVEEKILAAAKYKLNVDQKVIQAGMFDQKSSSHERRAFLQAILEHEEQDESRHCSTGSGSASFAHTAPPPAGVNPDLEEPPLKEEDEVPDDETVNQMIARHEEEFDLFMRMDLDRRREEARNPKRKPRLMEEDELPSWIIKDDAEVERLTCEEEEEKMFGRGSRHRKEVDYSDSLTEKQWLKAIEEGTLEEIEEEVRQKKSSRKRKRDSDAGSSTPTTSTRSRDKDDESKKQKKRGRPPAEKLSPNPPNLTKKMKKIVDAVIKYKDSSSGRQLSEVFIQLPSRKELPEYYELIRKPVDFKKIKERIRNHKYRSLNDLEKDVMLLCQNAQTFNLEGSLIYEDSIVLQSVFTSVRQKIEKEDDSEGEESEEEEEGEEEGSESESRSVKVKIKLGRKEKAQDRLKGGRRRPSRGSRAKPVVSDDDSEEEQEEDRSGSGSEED

Row | IC50 (BRM; [1]) | Ratio* (BRM; ratio of BRG1 IC50 to BRM IC50) | IC50 (BRG-1; [1]) | IC50 (BRM; ADP-Glo ATPase assay) | Ratio* (BRG1 IC50 (μM) divided by BRM IC50 (μM)) (BRM) | IC50 (BRG-1; ADP-Glo ATPase assay) | Ratio* (BRM; ratio BRG1 IC50 / BRM IC50) | SMILES
1 | 0.0161 µM | 9.43 | 0.152 µM |  |  |  |  | C[C@@H]1CN(c2cccc(-c3ccc4cnc(CNC(=O)c5cc(Cl)c6c(c5)S(=O)(=O)[C@@H](C)COC6)cc4n3)n2)C[C@H](C)O1 [Compound 431]
2 | 0.0224 µM | 4.39 | 0.0985 µM |  |  |  |  | C[C@@H]1CCS(=O)(=O)c2cc(C(=O)NCc3cc4nc(-c5cccc(N6C[C@@H](C)O[C@@H](C)C6)n5)ccc4cn3)cc(F)c2O1 [Compound 494]
3 | 0.0137 µM | 38.63 | 0.528 µM |  |  |  |  | C[C@@H]1CN(c2cccc(-c3ccc4cnc(CNC(=O)c5cc(Cl)c6c(c5)S(=O)(=O)CCOC6)cc4n3)n2)C[C@H](C)O1 [Compound 389]
4 | 0.0452 µM | 6.50 | 0.293 µM |  |  |  |  | COC[C@H]1CCc2ccc(-c3ccc4cnc(CNC(=O)c5ccc6c(c5)S(=O)(=O)CCOC6)cc4n3)nc2N1C [Compound 477]
5 |  |  |  | 0.667 µM | 7.50 | 5 µM |  | CS(=O)(=O)c1cc(C(=O)NCc2cc3nc(-c4cncc(C5CC5)n4)ccc3cn2)ccc1F [Compound 292]
6 |  |  |  | 0.0376 µM |  | 0.436 µM | 11.57 | C[C@H]1COCc2ccc(C(=O)NCc3cc4nc(-c5cccc(N6C[C@H]7COC[C@H]7C6)n5)ccc4cn3)cc2S1(=O)=O [Compound 709]
7 |  |  |  | 0.433 µM | 11.38 | 4.93 µM |  | CO[C@H](C)c1cccc(-c2ccc3cnc(CNC(=O)c4ccc5c(c4)S(=O)(=O)CCOC5)cc3n2)n1 [Compound 68]
8 | 0.0201 µM | 10.88 | 0.219 µM |  |  |  |  | CCN(c1cccc(-c2ccc3cnc(CNC(=O)c4cc(F)c5c(c4)S(=O)(=O)CCOC5)cc3n2)n1)C1CC1 [Compound 338]
9 |  |  |  | 0.0187 µM | 7.68 | 0.143 µM |  | COc1cc(Cl)ccc1-c1ccc2cnc(CNC(=O)c3ccc4c(c3)S(=O)(=O)CCOC4)cc2n1 [Compound 102]
10 |  |  |  | 0.0098 µM |  | 0.176 µM | 17.95 | O=C(NCc1cc2nc(N3CCCc4cnc(OC5CC5)cc43)ccc2cn1)c1ccc2c(c1)S(=O)(=O)CCOC2 [Compound 852]
11 |  |  |  | 0.203 µM | 4.45 | 0.903 µM |  | C[C@@H]1COC[C@H](C)N1c1cccc(-c2ccc3cnc(CNC(=O)c4ccc5c(c4)S(=O)(=O)CCOC5)cc3n2)n1 [Compound 104]
12 | 0.005 µM | 3.85 | 0.0194 µM |  |  |  |  | C[C@@H]1CN(c2cccc(-c3ccc4cnc(CNC(=O)c5cc6c(cc5F)COCCS6(=O)=O)cc4n3)n2)C[C@H](C)O1 [Compound 648]
13 |  |  |  | 0.0089 µM |  | 0.0884 µM |  | C[C@@H]1CN(c2cccc(-c3ccc4nnc(CNC(=O)c5ccc(C(F)F)c(S(C)(=O)=O)c5)cc4n3)n2)C[C@H](C)O1 [Compound 40]
14 |  |  |  | 0.0066 µM |  | 0.0934 µM | 14.12 | [2H]C1([2H])OC([2H])([2H])[C@H](C)S(=O)(=O)c2cc(C(=O)NCc3cc4nc(N5CCOc6cc(C)cnc65)ccc4cn3)ccc21 [Compound 741]
15 |  |  |  | 0.0077 µM | 13.36 | 0.103 µM |  | CO[C@@H]1CCCN(c2cccc(-c3ccc4cnc(CNC(=O)c5ccc6c(c5)S(=O)(=O)CCOC6)cc4n3)n2)C1 [Compound 92]
16 | 0.0421 µM | 26.15 | 1.1 µM |  |  |  |  | C[C@H]1COCc2ccc(C(=O)NCc3cc4nc(-c5cccc([C@H]6CC6(F)F)n5)ccc4cn3)cc2S1(=O)=O [Compound 392]
17 |  |  |  | 0.615 µM | 8.72 | 5.36 µM |  | CS(=O)(=O)c1cc(C(=O)NCc2cc3nc(-c4cncc(C5CC5)n4)ccc3cn2)cnc1C(F)F [Compound 277]
18 |  |  |  | 0.0181 µM | 10.70 | 0.194 µM |  | C[C@@H]1CN(c2cccc(-c3cnc4cnc(CNC(=O)c5ccc(Cl)c(S(C)(=O)=O)c5)cc4n3)n2)C[C@H](C)O1 [Compound 41]

Row | IC50 (BRM; [1]) | Ratio* (BRM; ratio of BRG1 IC50 to BRM IC50) | IC50 (BRG-1; [1]) | IC50 (BRM; ADP-Glo ATPase assay) | Ratio* (BRG1 IC50 (μM) divided by BRM IC50 (μM)) (BRM) | IC50 (BRG-1; ADP-Glo ATPase assay) | Ratio* (BRM; ratio BRG1 IC50 / BRM IC50) | SMILES
19 | 0.0109 µM | 10.78 | 0.117 µM |  |  |  |  | CCN(c1cccc(-c2ccc3cnc(CNC(=O)c4ccc5c(c4)S(=O)(=O)CCOC5)cc3n2)n1)[C@@H](C)COC [Compound 372]
20 |  |  |  | 0.0738 µM | 25.91 | 1.91 µM |  | O=C(NCc1cc2nc(-c3cccc(OC(F)F)c3)ccc2cn1)c1ccc2c(c1)S(=O)(=O)CCOC2 [Compound 278]
21 | 0.0079 µM | 4.24 | 0.0336 µM |  |  |  |  | C[C@@H]1CN(c2cccc(-c3ccc4cnc(CNC(=O)c5cnc6c(c5)S(=O)(=O)CCC5CC65)cc4n3)n2)C[C@H](C)O1 (mixture of isomers) [Compound 528]
22 | 0.213 µM | 10.41 | 2.22 µM |  |  |  |  | CO[C@H]1COc2c(-c3ccc4cnc(CNC(=O)c5ccc6c(c5)S(=O)(=O)CCOC6)cc4n3)cccc2N(C)C1 [Compound 613]
23 |  |  |  | 0.0068 µM | 11.74 | 0.0794 µM |  | CCN(CCOC)c1cccc(-c2ccc3cnc(CNC(=O)c4ccc5c(c4)S(=O)(=O)CCOC5)cc3n2)n1 [Compound 73]
24 | 0.0064 µM | 18.84 | 0.12 µM |  |  |  |  | O=C(NCc1cc2nc(N3CCCc4ccc(C(F)F)cc43)ccc2cn1)c1ccc2c(c1)S(=O)(=O)CCOC2 [Compound 532]
25 |  |  |  | 1.04 µM |  | 3.81 µM | 3.68 | CC1(C)CCN(c2ccc3cnc(CNC(=O)c4ccc5c(c4)S(=O)(=O)CCOC5)cc3n2)c2ncccc21 [Compound 752]
26 | 0.0245 µM | 13.30 | 0.326 µM |  |  |  |  | COC[C@H]1C[C@@H]1N(C)c1cccc(-c2ccc3cnc(CNC(=O)c4ccc5c(c4)S(=O)(=O)CCOC5)cc3n2)n1 [Compound 312]
27 | 0.0146 µM | 18.90 | 0.275 µM |  |  |  |  | COc1nc(C)ccc1-c1ccc2cnc(CNC(=O)c3ccc4c(c3)S(=O)(=O)[C@@H](C)COC4)cc2n1 [Compound 411]
28 | 0.0559 µM | 6.61 | 0.37 µM |  |  |  |  | COc1cccc2c1CCN2c1ccc2cnc(CNC(=O)c3ccc4c(c3)S(=O)(=O)CCOC4)cc2n1 [Compound 647]
29 |  |  |  | 0.004 µM |  | 0.0183 µM | 4.62 | COc1cc(F)cc2c1CCCN2c1ccc2cnc(CNC(=O)c3ccc4c(c3)S(=O)(=O)CCOC4)cc2n1 [Compound 750]
30 |  |  |  | 0.006 µM | 4.58 | 0.0274 µM |  | C[C@@H]1CN(c2nc(-c3ccc4cnc(CNC(=O)c5ccc6c(c5)S(=O)(=O)CCOC6)cc4n3)ccc2F)C[C@H](C)O1 [Compound 111]
31 |  |  |  | 0.0122 µM |  | 0.0614 µM | 5.03 | CN(C)c1cnc2c(c1)OCCN2c1ccc2cnc(CNC(=O)c3ccc4c(c3)S(=O)(=O)CCOC4)cc2c1 [Compound 790]
32 | 0.0266 µM | 16.52 | 0.439 µM |  |  |  |  | CC1CN(c2cccc(-c3ccc4cnc(CNC(=O)c5ccc6c(c5)S(=O)(=O)C(C)CN6C)cc4n3)n2)CC(C)O1 (centres unmarked) [Compound 498]
33 |  |  |  | 0.0446 µM | 7.01 | 0.313 µM |  | CN(c1cccc(-c2ccc3cnc(CNC(=O)c4ccc5c(c4)S(=O)(=O)CCOC5)cc3n2)n1)[C@H]1CCOC1 [Compound 117]
34 |  |  |  | 0.395 µM |  | 3.8 µM | 9.60 | O=C(NCc1cc2nc(N3CC4CC4c4cccnc43)ccc2cn1)c1ccc2c(c1)S(=O)(=O)CCOC2 (centres unmarked) [Compound 855]
35 | 0.0224 µM | 7.93 | 0.177 µM |  |  |  |  | COCc1cc2c(nc1C)N(c1ccc3cnc(CNC(=O)c4ccc5c(c4)S(=O)(=O)CCOC5)cc3n1)CCC2 [Compound 590]
36 |  |  |  | 0.103 µM |  | 1.22 µM | 11.84 | O=C(NCc1cc2nc(N3CCc4cc(F)cnc43)ccc2cn1)c1ccc2c(c1)S(=O)(=O)CCOC2 [Compound 727]
